From patent US8192962B2, “Processes for detecting toxic substances” (Daikin Industries, Ltd., priority 2001, dated 2012)

System: Mitochondria-located protein genes
Test: DNA chip mRNA expression in yeast, mitochondria-located protein genes (Table 2)
Format: cell-based, Saccharomyces cerevisiae S288C
Settings: cells incubated two hours with the chemical substance
In short: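 S. cerevisiae S288C grown at 25° C in YPD were exposed in log phase for two hours to one toxic chemical at a growth-inhibiting, non-lethal concentration; untreated cells served as control. Poly(A) mRNA was reverse-transcribed with Cy3/Cy5-dUTP and hybridized to a whole-genome yeast DNA chip at 65° C for over 12 hours; values are fluorescence ratios versus untreated.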

## Oc1cc(Cl)c(Cl)cc1Cl [(6), 2,4,5-trichlorophenol]
Yeast gene YJR121W
  The level of expressed mRNA in the presence of chemical substance/The level of expressed mRNA in the absence of chemical substance: 1.5
Yeast gene YKL003C
  The level of expressed mRNA in the presence of chemical substance/The level of expressed mRNA in the absence of chemical substance: 1.0
Yeast gene YKL016C
  The level of expressed mRNA in the presence of chemical substance/The level of expressed mRNA in the absence of chemical substance: 0.8
Yeast gene YKL141W
  The level of expressed mRNA in the presence of chemical substance/The level of expressed mRNA in the absence of chemical substance: 1.2
Yeast gene YKL142W
  The level of expressed mRNA in the presence of chemical substance/The level of expressed mRNA in the absence of chemical substance: 3.4
Yeast gene YKL148C
  The level of expressed mRNA in the presence of chemical substance/The level of expressed mRNA in the absence of chemical substance: 0.5
Yeast gene YKL170W
  The level of expressed mRNA in the presence of chemical substance/The level of expressed mRNA in the absence of chemical substance: 1.5
Yeast gene YKL194C
  The level of expressed mRNA in the presence of chemical substance/The level of expressed mRNA in the absence of chemical substance: 1.4
Yeast gene YKR066C
  The level of expressed mRNA in the presence of chemical substance/The level of expressed mRNA in the absence of chemical substance: 0.9
Yeast gene YLL041C
  The level of expressed mRNA in the presence of chemical substance/The level of expressed mRNA in the absence of chemical substance: 1.2
Yeast gene YLR038C
  The level of expressed mRNA in the presence of chemical substance/The level of expressed mRNA in the absence of chemical substance: 1.2
Yeast gene YLR259C
  The level of expressed mRNA in the presence of chemical substance/The level of expressed mRNA in the absence of chemical substance: 0.9
Yeast gene YLR295C
  The level of expressed mRNA in the presence of chemical substance/The level of expressed mRNA in the absence of chemical substance: 1.1
Yeast gene YLR304C
  The level of expressed mRNA in the presence of chemical substance/The level of expressed mRNA in the absence of chemical substance: 1.9
Yeast gene YLR348C
  The level of expressed mRNA in the presence of chemical substance/The level of expressed mRNA in the absence of chemical substance: 1.9
Yeast gene YLR395C
  The level of expressed mRNA in the presence of chemical substance/The level of expressed mRNA in the absence of chemical substance: 0.4
Yeast gene YML054C
  The level of expressed mRNA in the presence of chemical substance/The level of expressed mRNA in the absence of chemical substance: 1.8
Yeast gene YML120C
  The level of expressed mRNA in the presence of chemical substance/The level of expressed mRNA in the absence of chemical substance: 0.6
Yeast gene YML129C
  The level of expressed mRNA in the presence of chemical substance/The level of expressed mRNA in the absence of chemical substance: 1.7
Yeast gene YMR023C
  The level of expressed mRNA in the presence of chemical substance/The level of expressed mRNA in the absence of chemical substance: 1.1
Yeast gene YMR035W
  The level of expressed mRNA in the presence of chemical substance/The level of expressed mRNA in the absence of chemical substance: 1.5
Yeast gene YMR083W
  The level of expressed mRNA in the presence of chemical substance/The level of expressed mRNA in the absence of chemical substance: 1.8
Yeast gene YMR089C
  The level of expressed mRNA in the presence of chemical substance/The level of expressed mRNA in the absence of chemical substance: 1.2
Yeast gene YMR152W
  The level of expressed mRNA in the presence of chemical substance/The level of expressed mRNA in the absence of chemical substance: 7.5
Yeast gene YMR203W
  The level of expressed mRNA in the presence of chemical substance/The level of expressed mRNA in the absence of chemical substance: 1.1
Yeast gene YMR267W
  The level of expressed mRNA in the presence of chemical substance/The level of expressed mRNA in the absence of chemical substance: 1.4
Yeast gene YNL055C
  The level of expressed mRNA in the presence of chemical substance/The level of expressed mRNA in the absence of chemical substance: 2.6
Yeast gene YNL071W
  The level of expressed mRNA in the presence of chemical substance/The level of expressed mRNA in the absence of chemical substance: 1.3
Yeast gene YNL073W
  The level of expressed mRNA in the presence of chemical substance/The level of expressed mRNA in the absence of chemical substance: 0.5
Yeast gene YNL104C
  The level of expressed mRNA in the presence of chemical substance/The level of expressed mRNA in the absence of chemical substance: 0.8
Yeast gene YNL256W
  The level of expressed mRNA in the presence of chemical substance/The level of expressed mRNA in the absence of chemical substance: 0.5
Yeast gene YOL096C
  The level of expressed mRNA in the presence of chemical substance/The level of expressed mRNA in the absence of chemical substance: 1.3
Yeast gene YOR020C
  The level of expressed mRNA in the presence of chemical substance/The level of expressed mRNA in the absence of chemical substance: 2.3
Yeast gene YOR037W
  The level of expressed mRNA in the presence of chemical substance/The level of expressed mRNA in the absence of chemical substance: 1.6
Yeast gene YOR100C
  The level of expressed mRNA in the presence of chemical substance/The level of expressed mRNA in the absence of chemical substance: 1.2
Yeast gene YOR130C
  The level of expressed mRNA in the presence of chemical substance/The level of expressed mRNA in the absence of chemical substance: 1.6
Yeast gene YOR142W
  The level of expressed mRNA in the presence of chemical substance/The level of expressed mRNA in the absence of chemical substance: 1.6
Yeast gene YOR150W
  The level of expressed mRNA in the presence of chemical substance/The level of expressed mRNA in the absence of chemical substance: 0.9
Yeast gene YOR176W
  The level of expressed mRNA in the presence of chemical substance/The level of expressed mRNA in the absence of chemical substance: 0.9
Yeast gene YOR187W
  The level of expressed mRNA in the presence of chemical substance/The level of expressed mRNA in the absence of chemical substance: 1.7
Yeast gene YOR316C
  The level of expressed mRNA in the presence of chemical substance/The level of expressed mRNA in the absence of chemical substance: 0.9
Yeast gene YPL040C
  The level of expressed mRNA in the presence of chemical substance/The level of expressed mRNA in the absence of chemical substance: 1.1
Yeast gene YPL134C
  The level of expressed mRNA in the presence of chemical substance/The level of expressed mRNA in the absence of chemical substance: 1.2
Yeast gene YPL135W
  The level of expressed mRNA in the presence of chemical substance/The level of expressed mRNA in the absence of chemical substance: 1.3
Yeast gene YPL215W
  The level of expressed mRNA in the presence of chemical substance/The level of expressed mRNA in the absence of chemical substance: 0.7
Yeast gene YPL262W
  The level of expressed mRNA in the presence of chemical substance/The level of expressed mRNA in the absence of chemical substance: 1.6
Yeast gene YPR024W
  The level of expressed mRNA in the presence of chemical substance/The level of expressed mRNA in the absence of chemical substance: 1.0
Yeast gene YPR037C
  The level of expressed mRNA in the presence of chemical substance/The level of expressed mRNA in the absence of chemical substance: 0.9
Yeast gene YPR047W
  The level of expressed mRNA in the presence of chemical substance/The level of expressed mRNA in the absence of chemical substance: 1.0
Yeast gene YPR134W
  The level of expressed mRNA in the presence of chemical substance/The level of expressed mRNA in the absence of chemical substance: 0.6
